According to patent publication US5124332A, “Substituted indoles as central nervous system agents” (Warner-Lambert Company, priority 1991, dated 1992):
Structures can show the parent of a compound that is named as a salt. Where two headings read alike, the source gives them in different places.

Key:
[1] = tested on: locomotor activity in mice; test: Inhibition of locomotor activity in mice; assay type: in vivo; settings: Mus musculus, read-out: Inhibition of Locomotor Activity in Mice ED50
Method: (§1) The compounds of Formula I are valuable dopaminergic agents. […] Thus, the compounds of Formula I were tested for their ability to inhibit locomotor activity in mice according to the assay described by J. R. McLean, et al, Pharmacology, Biochemistry and Behavior, Volume 8, pages 97-99 (1978); and for their ability to inhibit [^3 H]-spiroperidol binding in a receptor assay described by D. Grigoriadis and P. Seman, Journal of Neurochemistry, Volume 44, pages 1925-1935 (1985). The above test methods are incorporated herein by reference. The data in the table show the dopaminergic activity of representative compounds of Formula I.

[2] = molecular target: T1, [^3 H]-spiroperidol binding (Homo sapiens, UniProt P14416); test: Inhibition of [^3 H]-spiroperidol binding in a receptor assay
T1 construct: from tissue; own knowledge of the cited 1985 method, which predates the cloning of D2)
T1 sequence (P14416 whole entry): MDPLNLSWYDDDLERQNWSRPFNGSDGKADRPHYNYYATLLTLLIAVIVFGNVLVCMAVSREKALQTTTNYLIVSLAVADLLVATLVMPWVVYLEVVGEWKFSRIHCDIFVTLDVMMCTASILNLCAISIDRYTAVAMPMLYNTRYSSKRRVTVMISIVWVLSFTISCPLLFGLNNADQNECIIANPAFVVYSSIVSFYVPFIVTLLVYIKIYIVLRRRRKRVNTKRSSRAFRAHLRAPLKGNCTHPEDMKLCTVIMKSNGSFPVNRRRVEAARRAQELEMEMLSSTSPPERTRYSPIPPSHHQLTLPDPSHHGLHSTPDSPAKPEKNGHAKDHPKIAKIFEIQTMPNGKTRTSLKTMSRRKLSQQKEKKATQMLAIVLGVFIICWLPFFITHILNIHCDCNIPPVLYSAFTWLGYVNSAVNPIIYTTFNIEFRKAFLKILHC
Method: as §1

[3] = [^3 H]spiroperidol, receptor assay, read-out: Inhibition of [^3 H]Spiroperidol Binding IC50

SMILES	ED50 ([1]; mice, IP) [mg/kg]	IC50 [2, 3] [nM]	ED50 ([1]; ip) [mg/kg]	IC50 [2] [nM]
c1ccc(N2CCN(CC[C@H]3CC[C@H](c4c[nH]c5ccccc54)CC3)CC2)nc1 [Example 1, trans 3-[4-[2-[4-(2-pyridinyl)-1-piperazinyl]ethyl]cyclohexyl]-1H-indole]	1.4	69.8	–	–
c1ccc(N2CCN(CC[C@H]3CC[C@@H](c4c[nH]c5ccccc54)CC3)CC2)nc1 [Example 2, Cis 3-[4-[2-[4-(2-pyridinyl)-1-piperazinyl]ethyl]cyclohexyl]-1H-indole]	4.7	193	–	–
c1cnc(N2CCN(CC[C@H]3CC[C@H](c4c[nH]c5ccccc54)CC3)CC2)nc1 [Example 3, Trans 3-[4-[2-[4-(2-pyrimidinyl)-1-piperazinyl]ethyl]cyclohexyl]-1H-indole,hydrochloride]	3.3	224	–	–
c1cnc(N2CCN(CC[C@H]3CC[C@@H](c4c[nH]c5ccccc54)CC3)CC2)nc1 [Example 4, Cis 3-[4-[2-[4-(2-pyrimidinyl)-1-piperazinyl]ethyl]cyclohexyl]-1H-indole, hydrochloride]	8.6	349	–	–
C1=C(c2ccccc2)CCN(CC[C@H]2CC[C@H](c3c[nH]c4ccccc43)CC2)C1 [Example 5, Trans 3-[4-[2-(3,6-dihydro-4-phenyl-1(2H)-pyridinyl)ethyl]cyclohexyl]-1H-indole]	–	–	9	12.1
C1=C(c2ccccc2)CCN(CC[C@H]2CC[C@@H](c3c[nH]c4ccccc43)CC2)C1 [Example 6, Cis 3-[4-[2-(3,6-dihydro-4-phenyl-1(2H)-pyridinyl)ethyl]cyclohexyl]-1H-indole]	–	–	16.6	39.3
C1=C(c2cccs2)CCN(CC[C@H]2CC[C@H](c3c[nH]c4ccccc43)CC2)C1 [Example 7, Trans 3-[4-[2-(3,6-dihydro-4-(2-thienyl)-1(2H)-pyridinyl)ethyl]cyclohexyl]-1H-indole]	–	878	11.7	–
C1=C(c2c[nH]c3ccccc23)CCC(CCN2CCN(c3ccccn3)CC2)C1 (stereo not shown) [Example 16]	6.25	270	–	–
